Test results: patent US20240018132A1, “5-HYDROXY-1,4-NAPHTHALENEDIONE FOR USE IN THE TREATMENT OF CANCER” (GODAVARI BIOREFINERIES LIMITED, priority 2020, published 2024)

How the values were obtained:
PC3 [1] = assay: In vitro sphere-forming assay (cancer stem cells), Prostosphere media; conditions: for viability at 0.0025 µM / viability at 0.025 µM / viability at 0.25 µM / viability at 2.5 µM / viability at 25 µM: Homo sapiens, PC-3, read-out: % Viability of spheres (PC3); for 3D sphere count of PC3: Prostosphere media, 2000 cells/well, n = 6 ± S.D
MDAMB231 [2] = assay: In vitro antiproliferative assay (MTT assay), breast cancer cell line; assay type: cell-based; conditions: Homo sapiens, MDA-MB-231, 48 h, MTT assay, breast cancer MDAMB231, 48 hrs drug incubation
Method: (§1) MTT assay is a simple and sensitive assay where, metabolic reducing activity of the cells is measured. The increase of this activity in time is taken as a parameter of cell growth. If treatment with a drug impairs this increase, the action is a consequence of growth inhibition, cell killing or both. […] All cell lines were cultured in a 37° C. incubator with a 5% CO2 environment. Compounds were dissolved in DMSO with a concentration of 0.1M (stock solution). Cells were seeded into 96-well plates at suitable plating efficiency.
(§2) Following plating efficiencies were standardized for MTT assay:
(§3) In the MTT procedure, the cells were plated in 96 well plates as per predetermined plating efficiency (Table1). The plates were then incubated for 24 hrs in 5% CO2 atmosphere at 37° C. Appropriate concentrations of the drugs were then added to the plate and further incubation was carried out for 48 hrs (in 5% CO2 atmosphere at 37° C.). The assay plate was then centrifuged twice at 3000 rpm for 3 mins and supernatant was then discarded. 100 ul of MTT solution (0.5 mg/ml) was then added to each well of the plate and it was further incubated for 4 hrs (in 5% CO2 atmosphere at 37° C.) Following 4 hr incubation, the plate was then centrifuged twice, and supernatant was aspirated off very carefully. 200 ul of DMSO was then added to each well to solubilize. MTT crystals and mixed well by shaking the plate. XY graph of log percent viability was then plotted against log drug concentration.

MDAMB231 [3] = assay: In vitro sphere-forming assay (cancer stem cells), Mammosphere media; conditions: for viability at 0.0025 µM / viability at 0.025 µM / viability at 0.25 µM / viability at 2.5 µM / viability at 25 µM: Homo sapiens, MDA-MB-231, read-out: % Viability of spheres (MDAMB231); for 3D sphere count of MDAMB231: Mammosphere media, 2000 cells/well, n = 6 ± S.D
PC3 [4] = assay: In vitro antiproliferative assay (MTT assay), prostate cancer cell line; assay type: cell-based; conditions: Homo sapiens, PC-3, 48 h, MTT assay, prostate cancer PC3, 48 hrs drug incubation
Method: as §1, §2, §3

IC50 (MDAMB231 [2]) [nM] | Structure (SMILES) | viability at 0.0025 µM (PC3 [1]) [%] | viability at 0.025 µM (PC3 [1]) [%] | viability at 0.25 µM (PC3 [1]) [%] | viability at 2.5 µM (PC3 [1]) [%] | viability at 25 µM (PC3 [1]) [%] | 3D sphere count of PC3 (PC3 [1]; drug 0.0025 uM) | 3D sphere count of PC3 (PC3 [1]; drug 0.025 uM) | 3D sphere count of PC3 (PC3 [1]; drug 0.25 uM) | 3D sphere count of PC3 (PC3 [1]; drug 2.5 uM) | 3D sphere count of PC3 (PC3 [1]; drug 25 uM) | viability at 0.0025 µM (MDAMB231 [3]) [%] | viability at 0.025 µM (MDAMB231 [3]) [%] | viability at 0.25 µM (MDAMB231 [3]) [%] | viability at 2.5 µM (MDAMB231 [3]) [%] | viability at 25 µM (MDAMB231 [3]) [%] | 3D sphere count of MDAMB231 (MDAMB231 [3]; drug 0.0025 uM) | 3D sphere count of MDAMB231 (MDAMB231 [3]; drug 0.025 uM) | 3D sphere count of MDAMB231 (MDAMB231 [3]; drug 0.25 uM) | 3D sphere count of MDAMB231 (MDAMB231 [3]; drug 2.5 uM) | further results
5500 | O=C1C(Oc2ccc(F)cc2)=CC(=O)c2c(OCCCN3CCOCC3)cccc21 [Formula 78] | 81 | 68 | 53 | 41 | 30 | 65(±4) | 55(±3) | 43(±3) | 33(±3) | 24(±4) | 87 | 67 | 57 | 46 | 35 | 79(±3) | 65(±5) | 52(±4) | 42(±4) | 3D sphere count of MDAMB231 (MDAMB231 [3]; drug 25 uM): 32(±3); IC50 (PC3 [4]): 3460 nM
502 | O=C1C=C(Oc2ccc3c(c2)OCO3)C(=O)c2c(OCCN3CCOCC3)cccc21 [Formula 79, 8-(2-morpholinoethoxy)-2-(benzo[d][1,3]dioxol-6-yloxy)naphthalene-1,4-dione] | 78 | 57 | 43 | 30 | 20 | 65(±4) | 55(±3) | 43(±3) | 33(±3) | 24(±4) | 76 | 56 | 39 | 26 | 19 | 69(±3) | 51(±3) | 35(±3) | 24(±3) | 3D sphere count of MDAMB231 (MDAMB231 [3]; drug 25 uM): 17(±3); IC50 (PC3 [4]): 527 nM
352 | O=C1C=C(Oc2ccc(F)cc2)C(=O)c2c(OCCN3CCOCC3)cccc21 [Formula 80, 8-(2-morpholinoethoxy)-2-(4fluorophenoxy)naphthalene-1,4-dione] | 73 | 56 | 37 | 27 | 17 | 59(±3) | 45(±3) | 30(±2) | 22(±4) | 14(±3) | 75 | 53 | 39 | 23 | 15 | 68(±4) | 48(±3) | 35(±4) | 21(±3) | 3D sphere count of MDAMB231 (MDAMB231 [3]; drug 25 uM): 14(±4); IC50 (PC3 [4]): 482 nM
